From the supplement of paper PMC5908809

How the values were obtained:
[1] = system: IMC-1 (IL-2 20 ng/mL); experiment: drug sensitivity score (DSS) (DSS units); higher = more sensitive; extreme values may be limits of the assay; conditions: 72 h
[2] = system: normal primary NK cells, pool 3 (3 donors) (IL-2 2.5 ng/mL); experiment: as above; conditions: 72 h
[3] = system: YT (IL-2 2.5 ng/mL); experiment: as above; conditions: 72 h
[4] = system: NK-92 (IL-2 2.5 ng/mL); experiment: as above; conditions: 72 h
[5] = system: SNK-6 (IL-2 2.5 ng/mL); experiment: as above; conditions: 72 h
[6] = system: NK-YS (IL-2 2.5 ng/mL); experiment: as above; conditions: 72 h
[7] = system: NKL (IL-2 2.5 ng/mL); experiment: as above; conditions: 72 h
[8] = system: DERL-7 (IL-2 2.5 ng/mL); experiment: as above; conditions: 72 h
[9] = system: normal primary NK cells, pool 1 (3 donors) (IL-2 2.5 ng/mL); experiment: as above; conditions: 72 h
[10] = system: KHYG-1 (IL-2 2.5 ng/mL); experiment: as above; conditions: 72 h
[11] = system: normal primary NK cells, pool 1 (3 donors), resting (IL-2 0 ng/mL); experiment: as above; conditions: 72 h
[12] = system: KAI3 (IL-2 2.5 ng/mL); experiment: as above; conditions: 72 h
[13] = system: normal primary NK cells, pool 2 (3 donors) (IL-2 2.5 ng/mL); experiment: as above; conditions: 72 h
[14] = system: normal NK cells expanded with K562-aAPC; experiment: percent inhibition of viability; higher = more inhibition; conditions: 72 h, IL-2 2.5 ng/mL
Method: (§1)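 Drug sensitivity and resistance testing on K562-aAPC-expanded normal NK cells: 5 concentrations (10-fold steps over a 10,000-fold range), 72 h at 37 °C, viability by CellTiter-Glo normalised to DMSO and benzethonium chloride controls; DSS from the fitted curve.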

[15] = system: IMC-1 (IL-2 20 ng/mL); experiment: as above; conditions: 72 h
[16] = system: normal primary NK cells, pool 3 (3 donors) (IL-2 2.5 ng/mL); experiment: as above; conditions: 72 h
[17] = system: YT (IL-2 2.5 ng/mL); experiment: as above; conditions: 72 h
[18] = system: NK-92 (IL-2 2.5 ng/mL); experiment: as above; conditions: 72 h
[19] = system: SNK-6 (IL-2 2.5 ng/mL); experiment: as above; conditions: 72 h
[20] = system: NK-YS (IL-2 2.5 ng/mL); experiment: as above; conditions: 72 h
[21] = system: NKL (IL-2 2.5 ng/mL); experiment: as above; conditions: 72 h
[22] = system: DERL-7 (IL-2 2.5 ng/mL); experiment: as above; conditions: 72 h
[23] = system: normal primary NK cells, pool 1 (3 donors) (IL-2 2.5 ng/mL); experiment: as above; conditions: 72 h
[24] = system: KHYG-1 (IL-2 2.5 ng/mL); experiment: as above; conditions: 72 h
[25] = system: normal primary NK cells, pool 1 (3 donors), resting (IL-2 0 ng/mL); experiment: as above; conditions: 72 h
[26] = system: KAI3 (IL-2 2.5 ng/mL); experiment: as above; conditions: 72 h
[27] = system: normal primary NK cells, pool 2 (3 donors) (IL-2 2.5 ng/mL); experiment: as above; conditions: 72 h
[28] = system: normal NK cells expanded with K562-aAPC; experiment: drug sensitivity score (DSS) (DSS units); higher = more sensitive; extreme values may be limits of the assay; conditions: 72 h; IL-2 2.5 ng/mL
Method: as §1

COc1cc2c(cc1-c1c(C)noc1C)ncc1[nH]c(=O)n([C@H](C)c3ccccn3)c12 [I-BET151] (max concentration tested 10000 nM)
Conditions | drug sensitivity score
[1] | 6.36
[2] | 6.22
[3] | 8.36
[4] | 1.57
[5] | 16.1
[6] | 11.1
[7] | 12.4
[8] | 17.4
[9] | 9.37
[10] | 14.1
[11] | 7.37
[12] | 7.74
[13] | 8.63
[28] | 6.57

percent inhibition of viability [%]
Conditions | 1 nM | 10 nM | 100 nM | 1000 nM | 10000 nM
[14] | -4.2 | -5.61 | -3.72 | 17.1 | 70.7
[15] | -10.4 | -6.13 | -13.8 | 11.4 | 80.4
[16] | 0.13 | -4.21 | 7.82 | 12.9 | 73.7
[17] | -4.09 | -3.54 | -0.4 | 36.2 | 69.4
[18] | -10.1 | -10.2 | -33.2 | -7 | 39.9
[19] | -9.22 | -7.3 | 19.2 | 71.4 | 58.4
[20] | -6.04 | 0.41 | 9.82 | 50.3 | 86
[21] | -4.89 | -7.31 | 11.6 | 58.9 | 75
[22] | -3.21 | -1.77 | 20 | 81.5 | 100
[23] | 4.94 | 14.1 | 16.8 | 34.1 | 86.3
[24] | -6.56 | -3.86 | 2.8 | 72 | 98.6
[25] | 11.1 | 15.2 | 12.9 | 26.3 | 69
[26] | -1.82 | -7.24 | -5.5 | 36.7 | 60.8
[27] | -6.96 | -4.14 | 1.63 | 30.1 | 81.5

O=C1c2c(O)ccc(O)c2C(=O)c2c(NCCNCCO)ccc(NCCNCCO)c21 [Mitoxantrone] (max concentration tested 1000 nM)
Conditions | drug sensitivity score
[1] | 8.2
[2] | 2.25
[3] | 1.43
[4] | 4.12
[5] | 12.2
[6] | 8.97
[7] | 17.5
[8] | 10
[9] | 3.14
[10] | 6.72
[11] | 8.71
[12] | 9.23
[13] | 4.44
[28] | 6.19

percent inhibition of viability [%]
Conditions | 0.1 nM | 1 nM | 10 nM | 100 nM | 1000 nM
[14] | 1.76 | 1.15 | 1.38 | 19 | 62
[15] | -4.49 | -5.12 | 2.6 | 19.3 | 92.1
[16] | -18.6 | -1.63 | -2.35 | -0.69 | 45.1
[17] | -1.6 | 4.64 | 3.75 | -0.47 | 32.4
[18] | -10.5 | -26.1 | -3.86 | 11.4 | 45.4
[19] | 15 | 22.1 | 31.1 | 20.5 | 73.1
[20] | -6.35 | -2.16 | 9.79 | 37.1 | 85.1
[21] | -8.85 | 3.32 | 12 | 87 | 107
[22] | -0.69 | -3.99 | 7.25 | 45.4 | 81.1
[23] | 1.11 | -8.14 | 0.77 | -0.51 | 58.9
[24] | -1.32 | 3.99 | 7.39 | 17.7 | 72.5
[25] | -14 | -28.2 | -16.5 | 24.1 | 91.4
[26] | -18.6 | -16.5 | -1.68 | 41.7 | 74.6
[27] | -14.3 | -3.15 | 3.94 | 9.38 | 53.6

Cc1cc(OCc2nnc(SC3CCCC3)n2-c2cccnc2)ccc1-c1ccc(S(C)(=O)=O)cc1 [NMS-873] (max concentration tested 10000 nM)
Conditions | drug sensitivity score
[1] | 26.4
[2] | 8.69
[3] | 26.1
[4] | 14.8
[5] | 9.51
[6] | 22.1
[7] | 14.6
[8] | 9.55
[9] | 11.4
[10] | 17.9
[11] | 13.7
[12] | 10.4
[13] | 12.2
[28] | 9.28

percent inhibition of viability [%]
Conditions | 1 nM | 10 nM | 100 nM | 1000 nM | 10000 nM
[14] | 0.72 | 5.79 | 5.95 | 24.3 | 101
[15] | 2.03 | 32.2 | 95.6 | 39.2 | 101
[16] | -2.38 | 0.99 | 24.8 | 27 | 99.8
[17] | -2.33 | 20.6 | 83.1 | 56.4 | 106
[18] | -7.23 | -12.4 | 12.5 | 70.3 | 107
[19] | 0.98 | 31.4 | 15.3 | 33.6 | 101
[20] | 6.01 | 11.3 | 46.8 | 84.8 | 107
[21] | 11.2 | 14.7 | 26 | 52 | 106
[22] | 8.88 | 2.79 | 15.8 | 34.8 | 101
[23] | 6.16 | -1.92 | 22 | 43.5 | 98.7
[24] | 3.36 | 6 | 38 | 65.7 | 107
[25] | -8.11 | -16.4 | 24.5 | 58.2 | 91.2
[26] | 3.12 | 7.92 | 11.3 | 35.3 | 105
[27] | -5.68 | 4.07 | 30.6 | 39.7 | 97.8
